Results taken from patent US9029404B2, “Apoptosis-inducing agents for the treatment of cancer and immune and autoimmune diseases” (AbbVie Inc., priority 2008, dated 2015).

The molecules below were run against GST-Bcl-2 (Homo sapiens, UniProt P10415) (assay: Time Resolved-Fluorescence Resonance Energy Transfer (TR-FRET) Bcl-2 binding assay). Conditions: competition with F-Bak peptide probe (100 nM); GST-Bcl-2 1 nM; Tb-anti-GST 1 nM; 3 hours at room temperature; Wang's equation.
Description: Determination of the utility of compounds having Formula (I) as binders to and inhibitors of anti-apoptotic Bcl-2 proteins was performed using the Time Resolved-Fluorescence Resonance Energy Transfer (TR-FRET) Assay. Tb-anti-GST antibody was purchased from Invitrogen (Catalog No. PV4216).
(§1) Representative compounds were serially diluted in dimethyl sulfoxide (DMSO) starting at 50 μM (2× starting concentration; 10% DMSO) and 10 μL were transferred into a 384-well plate. The samples are then mixed on a shaker for 1 minute and incubated for an additional 3 hours at room temperature. For each assay, the probe/antibody and protein/probe/antibody were included on each assay plate as negative and positive controls, respectively. Fluorescence was measured on the Envision (Perkin Elmer) using a 340/35 nm excitation filter and 520/525 (F-Bak peptide) and 495/510 nm (Tb-labeled anti-Histidine antibody) emission filters.
as §1, with “The” for “Representative compounds were serially diluted in dimethyl sulfoxide (DMSO) starting at 50 μM (2× starting concentration; 10% DMSO) and 10 μL were transferred into a 384-well plate. The”, “were” for “are”
The inhibition constant (Ki) is the dissociation constant of an enzyme-inhibitor complex or a protein/small molecule complex, wherein the small molecule is inhibiting binding of one protein to another protein. So a large Ki value indicates a low binding affinity and a small Ki value indicates a high binding affinity.

Sequence of GST-Bcl-2 (P10415 whole entry): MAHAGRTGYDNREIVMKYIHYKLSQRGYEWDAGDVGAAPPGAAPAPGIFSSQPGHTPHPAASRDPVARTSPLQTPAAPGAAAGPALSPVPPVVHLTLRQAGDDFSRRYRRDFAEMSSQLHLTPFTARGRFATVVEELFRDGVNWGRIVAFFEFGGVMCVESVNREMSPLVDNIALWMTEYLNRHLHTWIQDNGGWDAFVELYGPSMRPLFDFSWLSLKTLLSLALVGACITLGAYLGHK

Point of comparison: `CC1(C)CCC(CN2CCN(c3ccc(C(=O)NS(=O)(=O)c4ccc(OCC5CCC6(CC5)COC6)c([N+](=O)[O-])c4)c(Oc4cnc(N)c(Cl)c4)c3)CC2)=C(c2ccc(Cl)cc2)C1` [Example 440, 2-[(6-amino-5-chloropyridin-3-yl)oxy]-4-(4-{[2-(4-chlorophenyl)-4,4-dimethylcyclohex-1-en-1-yl]methyl}piperazin-1-yl)-N-{[3-nitro-4-(2-oxaspiro[3.5]non-7-ylmethoxy)phenyl]sulfonyl}benzamide], Ki 0.022 nM. Against it:
- CC1(C)CCC(CN2CCN(c3ccc(C(=O)NS(=O)(=O)c4cnc(OCC5CCC(C)(O)CC5)c(Cl)c4)c(Oc4cc(F)cc5[nH]ncc45)c3)CC2)=C(c2ccc(Cl)cc2)C1 (stereo not drawn) [Example 424, N-({5-chloro-6-[(trans-4-hydroxy-4-methylcyclohexyl)methoxy]pyridin-3-yl}sulfonyl)-4-(4-{[2-(4-chlorophenyl)-4,4-dimethylcyclohex-1-en-1-yl]methyl}piperazin-1-yl)-2-[(6-fluoro-1H-indazol-4-yl)oxy]benzamide] — lower, < 0.01 nM
- CC1(C)CCC(CN2CCN(c3ccc(C(=O)NS(=O)(=O)c4ccc(NCC5CCOCC5)c([N+](=O)[O-])c4)c(Oc4cccc5[nH]nc(N)c45)c3)CC2)=C(c2ccc(Cl)cc2)C1 [Example 431, 2-[(3-amino-1H-indazol-4-yl)oxy]-4-(4-{[2-(4-chlorophenyl)-4,4-dimethylcyclohex-1-en-1-yl]methyl}piperazin-1-yl)-N-({3-nitro-4-[(tetrahydro-2H-pyran-4-ylmethyl)amino]phenyl}sulfonyl)benzamide] — lower, < 0.01 nM
- CC1(C)CCC(CN2CCN(c3ccc(C(=O)NS(=O)(=O)c4ccc(OCC5(F)CCN(C6COC6)CC5)c([N+](=O)[O-])c4)c(Oc4cnc(N)c(Cl)c4)c3)CC2)=C(c2ccc(Cl)cc2)C1 [Example 432, 2-[(6-amino-5-chloropyridin-3-yl)oxy]-4-(4-{[2-(4-chlorophenyl)-4,4-dimethylcyclohex-1-en-1-yl]methyl}piperazin-1-yl)-N-[(4-{[4-fluoro-1-(oxetan-3-yl)piperidin-4-yl]methoxy}-3-nitrophenyl)sulfonyl]benzamide] — lower, < 0.01 nM
- CC1(C)CCC(CN2CCN(c3ccc(C(=O)NS(=O)(=O)c4ccc(OC[C@H]5CC[C@@](C)(O)CC5)c([N+](=O)[O-])c4)c(Oc4cnc(N)c(Cl)c4)c3)CC2)=C(c2ccc(Cl)cc2)C1 [Example 436, 2-[(6-amino-5-chloropyridin-3-yl)oxy]-4-(4-{[2-(4-chlorophenyl)-4,4-dimethylcyclohex-1-en-1-yl]methyl}piperazin-1-yl)-N-({4-[(cis-4-hydroxy-4-methylcyclohexyl)methoxy]-3-nitrophenyl}sulfonyl)benzamide] — lower, < 0.01 nM
- CC1(C)CCC(CN2CCN(c3ccc(C(=O)NS(=O)(=O)c4ccc(N[C@H]5CC[C@@H](N6CCOCC6)CC5)c([N+](=O)[O-])c4)c(Oc4cnc(N)c(Cl)c4)c3)CC2)=C(c2ccc(Cl)cc2)C1 [Example 452, 2-[(6-amino-5-chloropyridin-3-yl)oxy]-4-(4-{[2-(4-chlorophenyl)-4,4-dimethylcyclohex-1-en-1-yl]methyl}piperazin-1-yl)-N-[(4-{[cis-4-(morpholin-4-yl)cyclohexyl]amino}-3-nitrophenyl)sulfonyl]benzamide] — 5.1-fold higher, 0.112 nM
- CO[C@H]1CC[C@H](CNc2ccc(S(=O)(=O)NC(=O)c3ccc(N4CCN(CC5=C(c6ccc(Cl)cc6)CC(C)(C)CC5)CC4)cc3Oc3cccc4[nH]nc(N)c34)cc2[N+](=O)[O-])CC1 [Example 435, 2-[(3-amino-1H-indazol-4-yl)oxy]-4-(4-{[2-(4-chlorophenyl)-4,4-dimethylcyclohex-1-en-1-yl]methyl}piperazin-1-yl)-N-[(4-{[(trans-4-methoxycyclohexyl)methyl]amino}-3-nitrophenyl)sulfonyl]benzamide] — 2.2-fold lower, 0.01 nM
- CC1(C)CCC(CN2CCN(c3ccc(C(=O)NS(=O)(=O)c4ccc(N[C@@H]5CCN(C6COC6)C5)c([N+](=O)[O-])c4)c(Oc4cnc(N)c(Cl)c4)c3)CC2)=C(c2ccc(Cl)cc2)C1 [Example 455, 2-[(6-amino-5-chloropyridin-3-yl)oxy]-4-(4-{[2-(4-chlorophenyl)-4,4-dimethylcyclohex-1-en-1-yl]methyl}piperazin-1-yl)-N-[(3-nitro-4-{[(3R)-1-(oxetan-3-yl)pyrrolidin-3-yl]amino}phenyl)sulfonyl]benzamide] — 2-fold lower, 0.011 nM
- CO[C@H]1CC[C@H](CNc2ccc(S(=O)(=O)NC(=O)c3ccc(N4CCN(CC5=C(c6ccc(Cl)cc6)CC(C)(C)CC5)CC4)cc3Oc3cccc4[nH]c(=O)n(C)c34)cc2[N+](=O)[O-])CC1 [Example 427, 4-(4-{[2-(4-chlorophenyl)-4,4-dimethylcyclohex-1-en-1-yl]methyl}piperazin-1-yl)-N-[(4-{[(trans-4-methoxycyclohexyl)methyl]amino}-3-nitrophenyl)sulfonyl]-2-[(3-methyl-2-oxo-2,3-dihydro-1H-benzimidazol-4-yl)oxy]benzamide] — lower, < 0.01 nM
- CC1(C)CCC(CN2CCN(c3ccc(C(=O)NS(=O)(=O)c4ccc(NC[C@H]5CN(C6CC6)CCO5)c([N+](=O)[O-])c4)c(Oc4cnc(N)c(Cl)c4)c3)CC2)=C(c2ccc(Cl)cc2)C1 [Example 442, 2-[(6-amino-5-chloropyridin-3-yl)oxy]-4-(4-{[2-(4-chlorophenyl)-4,4-dimethylcyclohex-1-en-1-yl]methyl}piperazin-1-yl)-N-{[4-({[(2S)-4-cyclopropylmorpholin-2-yl]methyl}amino)-3-nitrophenyl]sulfonyl}benzamide] — lower, < 0.01 nM
- CC1(C)CCC(CN2CCN(c3ccc(C(=O)NS(=O)(=O)c4ccc(NCC5CCC(C)(O)CC5)c([N+](=O)[O-])c4)c(Oc4cnc(N)c(Cl)c4)c3)CC2)=C(c2ccc(Cl)cc2)C1 (stereo not drawn) [Example 434, 2-[(6-amino-5-chloropyridin-3-yl)oxy]-4-(4-{[2-(4-chlorophenyl)-4,4-dimethylcyclohex-1-en-1-yl]methyl}piperazin-1-yl)-N-[(4-{[(trans-4-hydroxy-4-methylcyclohexyl)methyl]amino}-3-nitrophenyl)sulfonyl]benzamide] — lower, < 0.01 nM
- CC1(C)CCC(CN2CCN(c3ccc(C(=O)NS(=O)(=O)c4ccc(NCC5(F)CCOCC5)c([N+](=O)[O-])c4)c(Oc4cc(F)cc5[nH]ncc45)c3)CC2)=C(c2ccc(Cl)cc2)C1 [Example 418, 4-(4-{[2-(4-chlorophenyl)-4,4-dimethylcyclohex-1-en-1-yl]methyl}piperazin-1-yl)-2-[(6-fluoro-1H-indazol-4-yl)oxy]-N-[(4-{[(4-fluorotetrahydro-2H-pyran-4-yl)methyl]amino}-3-nitrophenyl)sulfonyl]benzamide] — lower, < 0.01 nM
- CC1(C)CC(c2ccc(Cl)cc2)=C(CN2CCN(c3ccc(C(=O)NS(=O)(=O)c4ccc(OCC5(F)CCOCC5)c(Cl)c4)c(Oc4cc5cc[nH]c5cc4F)c3)CC2)CO1 [Example 413, N-({3-chloro-4-[(4-fluorotetrahydro-2H-pyran-4-yl)methoxy]phenyl}sulfonyl)-4-(4-{[4-(4-chlorophenyl)-6,6-dimethyl-5,6-dihydro-2H-pyran-3-yl]methyl}piperazin-1-yl)-2-[(6-fluoro-1H-indol-5-yl)oxy]benzamide] — 34-fold higher, 0.739 nM
- CC1(C)CCC(CN2CCN(c3ccc(C(=O)NS(=O)(=O)c4ccc(NCC5CN(C6COC6)CCO5)c([N+](=O)[O-])c4)c(Oc4cc5cc[nH]c5cc4F)c3)CC2)=C(c2ccc(Cl)cc2)C1 (stereo not shown) [Example 422, 4-(4-{[2-(4-chlorophenyl)-4,4-dimethylcyclohex-1-en-1-yl]methyl}piperazin-1-yl)-2-[(6-fluoro-1H-indol-5-yl)oxy]-N-{[3-nitro-4-({[4-(oxetan-3-yl)morpholin-2-yl]methyl}amino)phenyl]sulfonyl}benzamide] — lower, < 0.01 nM
- CC1(C)CCC(CN2CCN(c3ccc(C(=O)NS(=O)(=O)c4cnc(OCC5(F)CCOCC5)c(Cl)c4)c(Oc4cc(F)cc5[nH]ncc45)c3)CC2)=C(c2ccc(Cl)cc2)C1 [Example 415, N-({5-chloro-6-[(4-fluorotetrahydro-2H-pyran-4-yl)methoxy]pyridin-3-yl}sulfonyl)-4-(4-{[2-(4-chlorophenyl)-4,4-dimethylcyclohex-1-en-1-yl]methyl}piperazin-1-yl)-2-[(6-fluoro-1H-indazol-4-yl)oxy]benzamide] — 1.7-fold lower, 0.013 nM
- CC1(C)CCC(CN2CCN(c3ccc(C(=O)NS(=O)(=O)c4cnc(OC[C@H]5CC[C@H](O)CC5)c(Cl)c4)c(Oc4ccc(F)c5[nH]ncc45)c3)CC2)=C(c2ccc(Cl)cc2)C1 [Example 419, N-({5-chloro-6-[(trans-4-hydroxycyclohexyl)methoxy]pyridin-3-yl}sulfonyl)-4-(4-{[2-(4-chlorophenyl)-4,4-dimethylcyclohex-1-en-1-yl]methyl}piperazin-1-yl)-2-[(7-fluoro-1H-indazol-4-yl)oxy]benzamide] — 1.8-fold lower, 0.012 nM
